Data on 1 compound can be found in patent US7838491B2, “Self-assembly and mineralization of peptide-amphiphile nanofibers” (Northwestern University, priority 2001, dated 2010).

What all share (format): physicochemical
Series [1] is described as follows: solubility of the PA in water. The protocol: (§1) After synthesis (see, example 10), the PA of FIG. 1 (characterized by ^1H NMR and MALDI-TOF MS: [M-H]^−1=1333) was treated with dithiothreitol (DTT) at a pH of 8 to reduce all cysteine residues to free thiols. […] Solutions more concentrated than 2.5 mg/ml form birefringent gels in water that are self-supporting upon inversion of the container. […] Negatives were digitized in the Umax PowerLook scanner with resolution 1200 dpi. The average thickness of the PA fibers was determined by two different procedures. First the Fourier transform of the images and following measurements of the distances between the peaks were performed in the NIH Image […] program. The second approach applied was averaging technique based on the cross-correlation method, widely used in single particle reconstruction using the EMAN […] program. For each data set 1200-1300 individual boxes were selected.

Series [2] is described as follows: pH triggered self-assembly and gelation. The protocol:
as §1
Upon lowering the pH below 4 with HCl the material self-assembles; when the pH is brought back to neutrality with KOH it disassembles. This pH triggered self-assembly and gelation allows the material to respond to its environment and thus may have applications in controlled release of molecules (W. A. Petka, J. L. Hardin, K. P. McGrath, D. Wirtz, D. A. Tirrell, Science 281, 389-392 (1998)).

A short description of series [3]: TEM / cryo-TEM of self-assembled fibers. Here is the method: as §1
A short description of series [4]: stability of fibers in alkaline solution (pH 8). An excerpt:
Following self-assembly of PA molecules into fibers, the cysteine thiol groups were oxidized by treatment with 0.01M iodine. […] Importantly, the covalent capture process of this invention can be easily reversed by treating the fibers with a mild reducing agent such as DTT. […] Together with the controlled self-assembly, reversible cross-linking provides a highly dynamic system which can interconvert between discrete molecules, self-assembled supramolecular fibers, covalently captured polymeric fibers and back again to single small molecules depending solely on the environment in which the material is placed.

Square brackets hold non-standard residues; d marks the D form. Peptide text beside a SMILES is read from it. * marks the point of attachment. Palmitoyl = CCCCCCCCCCCCCCCC(=O)*; pS = N[C@@H](COP(=O)(O)O)C(=O)O

A word on the solubility: it is the concentration that dissolves in the medium under given conditions.

With `CCCCCCCCCCCCCCCC(=O)N[C@@H](CS)C(=O)N[C@@H](CS)C(=O)N[C@@H](CS)C(=O)N[C@@H](CS)C(=O)NCC(=O)NCC(=O)NCC(=O)N[C@@H](COP(=O)(O)O)C(=O)N[C@@H](CCCNC(=N)N)C(=O)NCC(=O)N[C@@H](CC(=O)O)C(=O)O` [PA 1, CCCCGGGS(P)RGD] (Palmitoyl-CCCCGGG[pS]RGD-OH), in series [1] (solution below pH 4), the solubility upon acidification result is given as “rapidly becomes insoluble”. For the same compound, the solubility in series [1] (water, pH 8, after DTT reduction of cysteines) is over 50 mg/mL. Besides, the “concentration dependence of fiber formation” value in series [2] (0.01 mg/ml to 50 mg/ml) is listed as “concentration independent”. Moreover, in series [2] (KOH), the “behaviour when pH is brought back to neutrality” value is on record as “disassembles”. For the same compound, the “concentration at which solutions form self-supporting birefringent gels” value in series [2] (in water) was over 2500 µg/mL. The “pH at which the material self-assembles” value in series [2] (pH lowered with HCl) is reported as “below 4”. Besides, the fiber diameter in series [3] (TEM, positively and negatively stained dried fibers) was 6.0±1 nm; in series [3] (cryo-TEM, native hydrated state) it was 7.6±1 nm. For the same compound, in series [3] (cryo-TEM of gels), the fiber length result was “up to several microns”. Moreover, in series [4], the “stability to alkaline solutions” value is listed as “disassemble within minutes”.
